{"source": "patent US20240216412A1", "about": "“OXIDIZED NICOTINAMIDE ADENINE DINUCLEOTIDE (NAD+) PRECURSOR TREATMENT FOR HEART FAILURE ALLEVIATION INDEPENDENT OF MITOCHONDRIAL PROTEIN DEACETYLATION” (University of Washington, priority 2022, published 2024)", "key": {"[1]": {"test_system": "chronic pressure overload (TAC) induced heart failure in WT and Sirt3Ko mice", "assay": "Transthoracic echocardiography after transverse aortic constriction (TAC) or sham surgery", "assay_type": "in vivo, mouse", "details": "for EF / FS / IVS; s / LV Mass / LV Mass (corr.) / LV Vol; d / LV Vol; s / LVID; d / LVID; s / LVPW; d / LVPW; s: NR; for IVS; d: NR 500 mg/kg body weight daily for eight weeks", "excerpt": "The present disclosure provides boosting intracellular NAD^+ with nicotinamide riboside chloride (NR) to protect Sirtuin 3 (Sirt3) knockout mice from heart failure. NR is a natural NAD precursor that bypasses nicotinamide phosphoribosyltransferase (NAMPT) to stimulate intracellular NAD^+ synthesis via the Nrk reaction (Bieganowski and Brenner, 2004; Canto et al., 2012; Diguet et al., 2018; Trammell et al., 2016). […] Immunoblotting confirmed the absence of Sirt3 and increased lysine acetylation in mitochondrial extracts from the knockout hearts (FIG. 9A). Pressure overload was induced by transverse aortic constriction (TAC) surgery for 12 weeks. Intracellular NAD^+ level was increased when mice had already developed cardiac hypertrophy and dysfunction, to model a therapeutic approach (FIG. 1A). After 4 weeks of chronic pressure overload, cardiac function was assessed using trans-thoracic M-mode echocardiography.\nMice randomly received either NR (500 mg/kg body weight) (Canto et al., 2012) or vehicle saline daily for eight-weeks. Representative M-mode images for the echocardiography can be found in FIGS. 1C and 1D. Four weeks of chronic pressure overload caused similar declines in left ventricular fractional shortening (FS %) in mice randomized to NR or vehicle groups for either WT or Sirt3Ko (FIGS. 1E and 1F). […] Similar to NR treated WT, cardiac hypertrophy, left ventricular cavity dilation, and lung edema were less severe in Sirt3Ko TAO mice that received NR treatment (FIGS. 1B-1J). All echocardiography parameters can be found in Table 1 below.\nAll procedures involving animal use were approved by the Institutional Animal Care and Use Committee (IACUC) of the University of Washington. Wild-type mice (129S1/SvlmJ Stock No: 002448) and Sirtuin 3 knockout mice (129-Sirt3tm1.1Fwa/J Stock No: 012755) were purchased from Jackson Laboratories. All mice were housed at 22° C. with a 12-hr light, 12-hr dark cycle with free access to water and standard chow. Male mice were used for experiments in this study.\nTransverse aortic constriction. Male mice (3-4 months old) underwent transverse aortic constriction (TAC) or sham surgery. Briefly, mice were anesthetized with an IP injection of 130 mg/kg ketamine and 8.8 mg/kg xylazine in saline. Mice were intubated with 20 G cannula and ventilated 140 breaths per minute by small animal TOPO ventilator (Kent Scientific). The aortic arch was exposed via a left thoracotomy and by carefully separating the thymus. A constriction of the transverse aorta was generated by tying a 6-0 Ethilon ligature against a 27-gauge blunt needle around the aorta between the brachiocephalic and left common carotid arteries. Promptly the needle was removed and the chest and skin were closed by 5-0 polypropylene suture. The animal was removed from ventilation and kept on a heating blanket during recovery from anesthesia. SR buprenorphine (0.05 mg/kg) was administered subcutaneously for analgesia. Sham operated mice underwent all the same procedures as TAC mice excluding the constriction of the aorta. All mice were monitored every 12 h during the first 72 h post-surgery, followed by daily visits over the next 4 weeks.\nTransthoracic Echocardiography. Echocardiography of hearts was performed at indicated time after surgery using the VEVO 2100 high-frequency, high-resolution digital imaging system (VisualSonics) equipped with a MS400 Microscan Transducer on anesthetized mice (0.5%-2% isoflurane in 95% oxygen). Measurements were made when heart rate was >450 bpm. Cardiac function and geometry measurements were measured in parasternal short axis view. M-mode images were used for analysis and calculated by the average of at least three cardiac cycles and carried out in a blind fashion. Hearts were harvested at 12-week post-surgery for subsequent experiments and biochemical assays."}, "RXRα": {"test_system": "RXRα", "assay": "Chromatin immunoprecipitation (ChIP) of RXRα at the Acadm promoter PPRE", "assay_type": "in vivo", "details": "ISO mouse hearts, NR", "method": "Chromatin immunoprecipitation (ChIP). The EZ ChIP kit (EMD Millipore catalog #17-371) was used according to the manufacturer's protocol. Briefly, heart tissue was cut into small pieces using a razor blade in a petri dish on ice. The cubed tissue was incubated in fixation solution (1% formaldehye) in a conical tube and rotated at room temperature for 15 minutes to crosslink proteins and chromatin. The reaction was stopped by adding 0.125M Glycine for 5 min at room temperature. The contents were homogenized with a hand-held tissue homogenizer for 45 seconds then pelleted by centrifugation for 3 minutes at 1,250×g at 4C. The supernatant was discarded and the pellet was resuspended in 10 ml ice-cold PBS wash buffer followed by centrifugation at 1,250×g for 3 minutes. This was wash step was repeated on ice. The supernatant was discarded and the pellet resuspended in 5 ml chromatin prep buffer and incubated on ice for 10 minutes. The resuspended pellet was homogenized on ice with a dounce homogenizer for 30 strokes and then contents transferred to new conical tube on ice. The suspension was centrifuged 3 minutes at 1,250×g at 4C then supernatant discarded. The pellet was resuspended in 1 ml Chip buffer and transferred to new centrifuge tube then incubated on ice for 10 minutes. […] Purified chromatin was analyzed on a 1% agarose gel to determine the shearing efficiency. […]"}}, "data": [{"compound": "NC(=O)c1ccc[n+]([C@@H]2O[C@H](CO)[C@@H](O)[C@H]2O)c1", "note": "[NR, Nicotinamide riboside chloride]", "values": [{"measurement": "Left ventricular cavity dilation", "setting": "[1]; Sirt3Ko TAC mice, similar to NR treated WT", "result": "less severe"}, {"measurement": "Advances of heart failure", "setting": "[1]; Sirt3Ko TAC mice, vs vehicle treatment", "result": "protected the Sirt3Ko TAO mice from advances of heart failure"}, {"measurement": "EF", "setting": "[1]; Sirt3Ko, Sham", "result": 71.3, "unit": "%"}, {"measurement": "FS", "setting": "[1]; Sirt3Ko, Sham", "result": 39.7, "unit": "%"}, {"measurement": "IVS; s", "setting": "[1]; Sirt3Ko, Sham", "result": 1.49, "unit": "mm"}, {"measurement": "LV Mass", "setting": "[1]; Sirt3Ko, Sham", "result": 146.9, "unit": "mg"}, {"measurement": "LV Mass (corr.)", "setting": "[1]; Sirt3Ko, Sham", "result": 117.5, "unit": "mg"}, {"measurement": "LV Vol; d", "setting": "[1]; Sirt3Ko, Sham", "result": 42.0, "unit": "µL"}, {"measurement": "LV Vol; s", "setting": "[1]; Sirt3Ko, Sham", "result": 12.1, "unit": "µL"}, {"measurement": "LVID; d", "setting": "[1]; Sirt3Ko, Sham", "result": 3.21, "unit": "mm"}, {"measurement": "LVID; s", "setting": "[1]; Sirt3Ko, Sham", "result": 1.94, "unit": "mm"}, {"measurement": "LVPW; d", "setting": "[1]; Sirt3Ko, Sham", "result": 1.30, "unit": "mm"}, {"measurement": "LVPW; s", "setting": "[1]; Sirt3Ko, Sham", "result": 1.69, "unit": "mm"}, {"measurement": "IVS; d", "setting": "[1]; Sirt3Ko, Sham", "result": 1.04, "unit": "mm"}, {"measurement": "EF", "setting": "[1]; Sirt3Ko, TAC", "result": 59.2, "unit": "%"}, {"measurement": "FS", "setting": "[1]; Sirt3Ko, TAC", "result": 30.9, "unit": "%"}, {"measurement": "IVS; s", "setting": "[1]; Sirt3Ko, TAC", "result": 1.67, "unit": "mm"}, {"measurement": "LV Mass", "setting": "[1]; Sirt3Ko, TAC", "result": 168.9, "unit": "mg"}, {"measurement": "LV Mass (corr.)", "setting": "[1]; Sirt3Ko, TAC", "result": 135.1, "unit": "mg"}, {"measurement": "LV Vol; d", "setting": "[1]; Sirt3Ko, TAC", "result": 47.8, "unit": "µL"}, {"measurement": "LV Vol; s", "setting": "[1]; Sirt3Ko, TAC", "result": 19.8, "unit": "µL"}, {"measurement": "LVID; d", "setting": "[1]; Sirt3Ko, TAC", "result": 3.39, "unit": "mm"}, {"measurement": "LVID; s", "setting": "[1]; Sirt3Ko, TAC", "result": 2.35, "unit": "mm"}, {"measurement": "LVPW; d", "setting": "[1]; Sirt3Ko, TAC", "result": 1.22, "unit": "mm"}, {"measurement": "LVPW; s", "setting": "[1]; Sirt3Ko, TAC", "result": 1.51, "unit": "mm"}, {"measurement": "IVS; d", "setting": "[1]; Sirt3Ko, TAC", "result": 1.22, "unit": "mm"}, {"measurement": "Fractional shortening (FS %)", "setting": "[1]; WT TAC mice, 8-week treatment", "result": "preserved FS %"}, {"measurement": "EF", "setting": "[1]; Wildtype, Sham", "result": 78.9, "unit": "%"}, {"measurement": "FS", "setting": "[1]; Wildtype, Sham", "result": 46.3, "unit": "%"}, {"measurement": "IVS; s", "setting": "[1]; Wildtype, Sham", "result": 1.72, "unit": "mm"}, {"measurement": "LV Mass", "setting": "[1]; Wildtype, Sham", "result": 141.9, "unit": "mg"}, {"measurement": "LV Mass (corr.)", "setting": "[1]; Wildtype, Sham", "result": 113.5, "unit": "mg"}, {"measurement": "LV Vol; d", "setting": "[1]; Wildtype, Sham", "result": 37.3, "unit": "µL"}, {"measurement": "LV Vol; s", "setting": "[1]; Wildtype, Sham", "result": 7.9, "unit": "µL"}, {"measurement": "LVID; d", "setting": "[1]; Wildtype, Sham", "result": 3.07, "unit": "mm"}, {"measurement": "LVID; s", "setting": "[1]; Wildtype, Sham", "result": 1.65, "unit": "mm"}, {"measurement": "LVPW; d", "setting": "[1]; Wildtype, Sham", "result": 1.27, "unit": "mm"}, {"measurement": "LVPW; s", "setting": "[1]; Wildtype, Sham", "result": 1.64, "unit": "mm"}, {"measurement": "IVS; d", "setting": "[1]; Wildtype, Sham", "result": 1.12, "unit": "mm"}, {"measurement": "EF", "setting": "[1]; Wildtype, TAC", "result": 62.5, "unit": "%"}, {"measurement": "FS", "setting": "[1]; Wildtype, TAC", "result": 32.7, "unit": "%"}, {"measurement": "IVS; s", "setting": "[1]; Wildtype, TAC", "result": 1.78, "unit": "mm"}, {"measurement": "LV Mass", "setting": "[1]; Wildtype, TAC", "result": 183.9, "unit": "mg"}, {"measurement": "LV Mass (corr.)", "setting": "[1]; Wildtype, TAC", "result": 147.1, "unit": "mg"}, {"measurement": "LV Vol; d", "setting": "[1]; Wildtype, TAC", "result": 36.7, "unit": "µL"}, {"measurement": "LV Vol; s", "setting": "[1]; Wildtype, TAC", "result": 13.7, "unit": "µL"}, {"measurement": "LVID; d", "setting": "[1]; Wildtype, TAC", "result": 3.04, "unit": "mm"}, {"measurement": "LVID; s", "setting": "[1]; Wildtype, TAC", "result": 2.04, "unit": "mm"}, {"measurement": "LVPW; d", "setting": "[1]; Wildtype, TAC", "result": 1.52, "unit": "mm"}, {"measurement": "LVPW; s", "setting": "[1]; Wildtype, TAC", "result": 1.85, "unit": "mm"}, {"measurement": "IVS; d", "setting": "[1]; Wildtype, TAC", "result": 1.30, "unit": "mm"}, {"measurement": "Binding occupancy of RXRα to the PPARα response element (PPRE) in the Acadm promoter", "setting": "RXRα", "result": "increased"}]}]}
